Source: PubChem BioAssay AID2060624 (Molecular Pharmacology Branch, DTP, NCI, 2025)

Tested on: 217524-143-R1-J4-PDC spheroids with HUVEC/MSC, viability
Experiment: Anticancer human tumor 217524-143-R1-J4-PDC patient-derived pancreatic carcinoma cell line growth inhibition [CLK]
Conditions: for IC50: curve of first compound; for viability, T/C: stronger effect = lower value
Procedure, shortened: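 Multi-cell-type spheroids combined patient-derived tumor cells with HUVEC endothelial cells and human mesenchymal stem cells. Paired agents were dosed in half-log steps down from about clinical Cmax, or from 10 microM where Cmax was unknown.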
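Further: spheroids exposed to agents for seven days before reading.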
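Wherever viability, T/C is given: 100% = DMSO vehicle control viability.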

Structure (SMILES): NC(=O)C(=Cn1cnc(-c2cc(C(F)(F)F)cc(C(F)(F)F)c2)n1)c1cncnc1 + CN1CCN(c2cc(C(=O)Nc3cc4cc(-c5cnn(C)c5)ccc4cn3)ccn2)CC1
- IC50 (second compound 0.0316 µM): 21.8 nM
- IC50 (second compound 0.1 µM): < 9.49 nM
- IC50 (second compound 0.316 µM): < 9.49 nM
- IC50 (second compound 1 µM): < 9.49 nM
- IC50 (second compound 3.16 µM): < 9.49 nM
- IC50 (second compound 10 µM): < 9.49 nM
- viability, T/C (second compound 0.0316 µM, first compound 0.00949 µM): 80.7%
- viability, T/C (second compound 0.0316 µM, first compound 0.03 µM): 39.1%
- viability, T/C (second compound 0.0316 µM, first compound 0.0949 µM): 22.3%
- viability, T/C (second compound 0.0316 µM, first compound 0.3 µM): 21.2%
- viability, T/C (second compound 0.0316 µM, first compound 0.949 µM): 23.1%
- viability, T/C (second compound 0.0316 µM, first compound 3 µM): 17.8%
- viability, T/C (second compound 0.1 µM, first compound 0.00949 µM): 35.9%
- viability, T/C (second compound 0.1 µM, first compound 0.03 µM): 23.7%
- viability, T/C (second compound 0.1 µM, first compound 0.0949 µM): 14%
- viability, T/C (second compound 0.1 µM, first compound 0.3 µM): 15.4%
- viability, T/C (second compound 0.1 µM, first compound 0.949 µM): 14.6%
- viability, T/C (second compound 0.1 µM, first compound 3 µM): 10.6%
- viability, T/C (second compound 0.316 µM, first compound 0.00949 µM): 10.8%
- viability, T/C (second compound 0.316 µM, first compound 0.03 µM): 8.91%
- viability, T/C (second compound 0.316 µM, first compound 0.0949 µM): 4.48%
- viability, T/C (second compound 0.316 µM, first compound 0.3 µM): 4%
- viability, T/C (second compound 0.316 µM, first compound 0.949 µM): 1.55%
- viability, T/C (second compound 0.316 µM, first compound 3 µM): 0.81%
- viability, T/C (second compound 1 µM, first compound 0.00949 µM): 0.79%
- viability, T/C (second compound 1 µM, first compound 0.03 µM): 0.59%
- viability, T/C (second compound 1 µM, first compound 0.0949 µM): 0.94%
- viability, T/C (second compound 1 µM, first compound 0.3 µM): 0.88%
- viability, T/C (second compound 1 µM, first compound 0.949 µM): 0.76%
- viability, T/C (second compound 1 µM, first compound 3 µM): 1.07%
- viability, T/C (second compound 3.16 µM, first compound 0.00949 µM): 0.72%
- viability, T/C (second compound 3.16 µM, first compound 0.03 µM): 0.67%
- viability, T/C (second compound 3.16 µM, first compound 0.0949 µM): 0.62%
- viability, T/C (second compound 3.16 µM, first compound 0.3 µM): 0.55%
- viability, T/C (second compound 3.16 µM, first compound 0.949 µM): 0.69%
- viability, T/C (second compound 3.16 µM, first compound 3 µM): 0.68%
- viability, T/C (second compound 10 µM, first compound 0.00949 µM): 0.2%
- viability, T/C (second compound 10 µM, first compound 0.03 µM): 0.17%
- viability, T/C (second compound 10 µM, first compound 0.0949 µM): 0.21%
- viability, T/C (second compound 10 µM, first compound 0.3 µM): 0.22%
- viability, T/C (second compound 10 µM, first compound 0.949 µM): 0.24%
- viability, T/C (second compound 10 µM, first compound 3 µM): 0.2%
